Molecules are shown by their SMILES. Like-named read-outs stand apart in the source and are kept apart here. A value given as a limit tells only on which side of the number the result lay.

Assay [1] has as its system MOLM13 cells. In words: Growth inhibition of CDK9-positive cell line MOLM13 in vitro (CCK8/MTT assay). The class given is cell-based, human. The following applies: Homo sapiens.
The target in assay [2] is T1, CDK9/CyclinK kinase (Homo sapiens, UniProt P50750).
T1 construct: purchased Promega Corporation V4105
T1 sequence (P50750 whole entry): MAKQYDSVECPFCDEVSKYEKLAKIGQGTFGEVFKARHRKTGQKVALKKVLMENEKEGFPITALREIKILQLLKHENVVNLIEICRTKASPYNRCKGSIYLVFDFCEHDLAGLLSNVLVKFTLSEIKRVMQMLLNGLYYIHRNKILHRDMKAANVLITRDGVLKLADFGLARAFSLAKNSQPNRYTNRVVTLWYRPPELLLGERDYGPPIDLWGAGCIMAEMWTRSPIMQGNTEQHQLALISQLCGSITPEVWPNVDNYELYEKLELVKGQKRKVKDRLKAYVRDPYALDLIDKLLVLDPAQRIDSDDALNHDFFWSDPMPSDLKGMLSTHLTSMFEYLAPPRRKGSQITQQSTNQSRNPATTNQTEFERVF
T1 sequence (O75909 whole entry partner): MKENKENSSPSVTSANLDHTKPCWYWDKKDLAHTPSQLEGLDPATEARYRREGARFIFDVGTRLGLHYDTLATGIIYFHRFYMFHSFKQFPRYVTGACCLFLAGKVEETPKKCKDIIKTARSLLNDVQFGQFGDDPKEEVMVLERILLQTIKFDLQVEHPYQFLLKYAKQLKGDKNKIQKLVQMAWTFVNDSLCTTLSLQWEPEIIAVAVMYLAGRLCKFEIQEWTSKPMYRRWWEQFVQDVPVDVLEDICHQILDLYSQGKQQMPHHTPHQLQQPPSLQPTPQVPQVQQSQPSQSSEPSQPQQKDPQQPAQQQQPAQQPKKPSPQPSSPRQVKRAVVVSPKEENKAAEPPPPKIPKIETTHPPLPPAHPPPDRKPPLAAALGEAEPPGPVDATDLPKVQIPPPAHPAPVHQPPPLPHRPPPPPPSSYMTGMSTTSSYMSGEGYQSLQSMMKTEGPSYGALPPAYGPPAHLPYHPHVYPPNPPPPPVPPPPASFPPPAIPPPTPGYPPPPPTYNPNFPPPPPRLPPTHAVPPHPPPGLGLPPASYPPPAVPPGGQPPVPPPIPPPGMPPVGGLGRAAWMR
The assay can be described thus: CDK9 protein kinase activity, ADP-Glo CDK9/CyclinK kinase detection kit. The class given is biochemical. The following applies: read-out: IC50 of the compound for inhibiting CDK9 protein kinase activity, CDK9/CyclinK kinase. How it is done: Measurement of CDK9 Protein Kinase Activity
The present compound was dissolved in DMSO (Sigma Aldrich), and the initial concentration of the compound was 1000 nM. A two-fold serial dilution was carried out. The specific operation of CDK9 kinase activity determination was carried out according to the ADP-Go™ CDK9/CyclinK kinase detection experimental procedure. […] Each test sample was tested in duplicate, and the test was repeated once. The inhibitory activity (IC50) of the compound on CDK9 protein kinase was calculated from the dose-inhibition curve of the compound.

Assay [3] relates to A375. In words: Growth inhibition of CDK9-positive tumor cell line in vitro. The class given is cell-based. The settings on record: A-375, Human melanoma, read-out: Inhibitory activity (IC50) on growth in vitro, A375. As to the method: (§1) Measurement of the Inhibitory Activity of the Present Compound on the Growth of Various Types of CDK9-Positive Tumor Cell Lines In Vitro
(§2) The inventors selected representative CDK9-positive tumor cell lines for further determination of the compound activity. All cell lines used came from ATCC, JCRB, DSMZ and Chinese Academy of Sciences Cell Bank (ZK). Cell culture condition and method were based on the requirements of each cell line. No more than 3 passages were carried out in each culture in vitro. Monoclonal purification and STR identification of the cell line were conducted if necessary.

In assay [4] the test system is B-CPAP. The assay is described as above. Format: cell-based. The following applies: BCPAP, Human thyroid cancer, read-out: Inhibitory activity (IC50) on growth in vitro, B-CPAP. As to the method:
as §1, §2

Assay [5] relates to CA Ski. The assay is described as above. The class given is cell-based. The settings on record: Human cervical cancer, read-out: Inhibitory activity (IC50) on growth in vitro, CA Ski. How it is done:
as §1, §2

In assay [6] the test system is CAL-120. Described as above. Format: cell-based. The settings on record: Human breast cancer, read-out: Inhibitory activity (IC50) on growth in vitro, CAL-120. How it is done:
as §1, §2

The test system of assay [7] is DU-145. Described as above. Format: cell-based. The settings on record: Human prostate cancer, read-out: Inhibitory activity (IC50) on growth in vitro, DU-145. How it is done: as §1, §2
Assay [8] has as its system HCC1954. The description is as above. The class given is cell-based. The settings on record: Human breast cancer, read-out: Inhibitory activity (IC50) on growth in vitro, HCC1954. As to the method: as §1, §2
Assay [9] deals with HO8910PM. The assay is described as above. Format: cell-based. The settings on record: Human ovarian cancer, read-out: Inhibitory activity (IC50) on growth in vitro, HO8910PM. How it is done:
as §1, §2

The test system of assay [10] is KYSE70. Described as above. Format: cell-based. The settings on record: KYSE-70, Human esophageal cancer, read-out: Inhibitory activity (IC50) on growth in vitro, KYSE70. How it is done: as §1, §2
In assay [11] the test system is Kasumi-1. The description is as above. The following applies: Human acute myeloid leukemia, read-out: Inhibitory activity (IC50) on growth in vitro, Kasumi-1. Format: cell-based. As to the method: as §1, §2
Assay [12] concerns LN229. Described as above. The class given is cell-based. The following applies: LN-229, Human glioma, read-out: Inhibitory activity (IC50) on growth in vitro, LN229. As to the method: as §1, §2
The subject of assay [13] is MCF7. The description is as above. Format: cell-based. The settings on record: Human breast cancer, read-out: Inhibitory activity (IC50) on growth in vitro, MCF7. How it is done: as §1, §2
Assay [14] has as its system MFM-223. The assay is described as above. The class given is cell-based. The settings on record: Human breast cancer, read-out: Inhibitory activity (IC50) on growth in vitro, MFM-223. How it is done: as §1, §2
Assay [15] concerns NCI-H1781. The assay is described as above. The following applies: Human lung cancer, read-out: Inhibitory activity (IC50) on growth in vitro, NCI-H1781. Format: cell-based. As to the method:
as §1, §2

Assay [16] relates to Pfeiffer. The assay is described as above. The class given is cell-based. The settings on record: Human B lymphocyte tumor, read-out: Inhibitory activity (IC50) on growth in vitro, Pfeiffer. As to the method: as §1, §2
The test system of assay [17] is SK-MEL-28. The assay is described as above. Format: cell-based. The settings on record: Human melanoma, read-out: Inhibitory activity (IC50) on growth in vitro, SK-MEL-28. How it is done: as §1, §2
For assay [18], the system named is Sk-ov-3. Described as above. Format: cell-based. The following applies: Human ovarian cancer, read-out: Inhibitory activity (IC50) on growth in vitro, Sk-ov-3. As to the method: as §1, §2
For assay [19], the system named is TPC-1. The description is as above. Format: cell-based. The following applies: TPC1, Human thyroid cancer, read-out: Inhibitory activity (IC50) on growth in vitro, TPC-1. How it is done:
as §1, §2

In assay [20] the test system is MDA-MB-231. Described as above. Format: cell-based. The settings on record: Human breast cancer, read-out: Inhibitory activity (IC50) on growth in vitro, MDA-MB-231. How it is done:
as §1, §2

For assay [21], the system named is A549. Described as above. Format: cell-based, Human. How it is done:
as §1, §2

The mark [22] stands for this setting: MOLM-13, MOLM13 cells, cultured 3 to 6 days, CCK8, read-out: IC50 of the compound for inhibiting cell growth, MOLM13 cells.
Where [23] appears, read: Human lung cancer, A549, read-out: Inhibitory activity (IC50) on growth in vitro, A549.

As to `Cc1cc(Nc2ncc(Cl)c(-n3cc(C(N)=O)c4ccccc43)n2)ccc1N1CCN(C(C)C)CC1` [Compound 60, 1-{5-chloro-2-[4-(4-isopropyl-piperazin-1-yl)-3-methyl-phenylamino]-pyrimidin-4-yl}-1H-indole-3-carboxamide], the IC50 is below 1 nM in [1] (setting [22]); 1 to 10 nM in assay [2]; 100 to 1000 nM in [3]; 10 to 100 nM in [4]; 10 to 100 nM in [5]; 1 to 10 nM in assay [6]. The IC50 in [7] lay in the range of 10 to 100 nM; in [8], 1 to 10 nM; in assay [9], 10 to 100 nM; in assay [10], 100 to 1000 nM; in assay [11], 1 to 10 nM; in assay [12], 100 to 1000 nM. Further, the IC50 in [13] lay within 10 to 100 nM; in assay [14] it was 10 to 100 nM; in assay [15], 10 to 100 nM; in assay [16], 10 to 100 nM; in [17], 100 to 1000 nM; in assay [18], 10 to 100 nM. Also, the IC50 in assay [19] lay in the range of 10 to 100 nM.

For the molecule `CCN1CCN(c2cccc(Nc3ncc(F)c(-n4cc(C(N)=O)c5cc(F)ccc54)n3)c2)CC1` [Compound 161, 1-{2-[3-(4-ethyl-piperazin-1-yl)-phenylamino]-5-fluoro-pyrimidin-4-yl}-5-fluoro-1H-indole-3-carboxamide], the IC50 in [1] (setting [22]) is below 1 nM; in assay [2], below 1 nM; in assay [3] it was 1 to 10 nM; in assay [4], 1 to 10 nM; in assay [5], below 1 nM; in [6], below 1 nM. The IC50 in assay [7] is 1 to 10 nM; in [8], below 1 nM; in assay [9], below 1 nM; in assay [10], 1 to 10 nM; in assay [11], 1 to 10 nM; in [12], 1 to 10 nM. Also, the IC50 in assay [13] was below 1 nM; in assay [20] it was below 1 nM; in assay [14], below 1 nM; in [15] it was below 1 nM; in assay [16] it was below 1 nM; in assay [17] it was 1 to 10 nM. Also, the IC50 in [18] was below 1 nM; in [19], 1 to 10 nM; in assay [21] (setting [23]), 1 to 10 nM.

Turning to `CCN1CCN(c2cccc(Nc3ncc(F)c(-n4cc(C(N)=O)c5cc(OC)ccc54)n3)c2)CC1` [Compound 152, 1-{2-[3-(4-ethyl-piperazin-1-yl)-phenylamino]-5-fluoro-pyrimidin-4-yl}-5-methoxy-1H-indole-3-carboxamide], the IC50 is below 1 nM in assay [1] (MOLM-13, read-out: IC50 of the compound for inhibiting cell growth, MOLM13 cells); below 1 nM in assay [2]; 1 to 10 nM in [3]; 1 to 10 nM in assay [4]; below 1 nM in assay [5]; below 1 nM in assay [6]. The IC50 in assay [7] was 1 to 10 nM; in assay [8], below 1 nM; in assay [9], below 1 nM; in assay [10] it was 1 to 10 nM; in assay [11] it was 1 to 10 nM; in assay [12], 1 to 10 nM. Further, the IC50 in [13] was below 1 nM; in assay [20], below 1 nM; in [14], below 1 nM; in assay [15], below 1 nM; in [16], below 1 nM; in assay [17], 1 to 10 nM. The IC50 in [18] was below 1 nM; in assay [19], 1 to 10 nM; in [21] (Homo sapiens, A549, read-out: Inhibitory activity (IC50) on growth in vitro, A549) it was 1 to 10 nM.

Consider `CC(C)N1CCN(c2cccc(Nc3ncc(F)c(-n4cc(C(N)=O)c5ccccc54)n3)c2)CC1` [Compound 144, 1-{5-fluoro-2-[3-(4-isopropyl-piperazin-1-yl)-phenylamino]-pyrimidin-4-yl}-1H-indole-3-carboxamide], for which the IC50 in [1] (setting [22]) is below 1 nM; in [3], 1 to 10 nM; in [4] it was below 1 nM; in assay [5], below 1 nM; in assay [6], below 1 nM; in assay [7], below 1 nM. Also, the IC50 is below 1 nM in assay [8]; below 1 nM in [9]; 1 to 10 nM in [10]; below 1 nM in [11]; below 1 nM in assay [12]; below 1 nM in assay [13]. For the same molecule, the IC50 in assay [20] was below 1 nM; in assay [14] it was below 1 nM; in assay [15], below 1 nM; in [16], below 1 nM; in assay [17], 1 to 10 nM; in [18] it was below 1 nM. Also, the IC50 in assay [19] is below 1 nM; in [21] (setting [23]) it was 1 to 10 nM.

Take `NC(=O)c1cn(-c2nc(Nc3cccc(N4CCN(C5CCOCC5)CC4)c3)ncc2F)c2ccccc12` [Compound 140, 1-(5-fluoro-2-{3-[4-(tetrahydro-pyran-4-yl)-piperazin-1-yl]-phenylamino}-pyrimidin-4-yl)-1H-indole-3-carboxamide]: the IC50 was below 1 nM in [1] (setting [22]); 1 to 10 nM in assay [3]; below 1 nM in assay [4]; below 1 nM in assay [5]; below 1 nM in assay [6]; below 1 nM in assay [7]. Further, the IC50 in assay [8] was below 1 nM; in assay [9], below 1 nM; in [10] it was 1 to 10 nM; in [11], 1 to 10 nM; in assay [12], 1 to 10 nM; in assay [13], below 1 nM. In addition, the IC50 in assay [20] is below 1 nM; in [14], below 1 nM; in assay [15] it was below 1 nM; in assay [16], below 1 nM; in assay [17] it was 1 to 10 nM; in [18] it was below 1 nM. The IC50 in assay [19] is below 1 nM; in [21] (setting [23]), 1 to 10 nM.

The values are drawn from patent US20210101881A1 (Ancureall Pharmaceutical (Shanghai) Co., Ltd., priority 2018, published 2021).
